The assay relates to KB. The assay is described as follows: Cytotoxicity against human KB cells. The assay is classed as functional. The conditions noted are these: for EC50: read-out: ED50 (the source's name).

≈ marks a conversion by molar mass, not a printed value. Calls of active or inactive are those of the source. No cut-off for these calls is given here.

Consider `CC1(C)C[C@H]2C3=CC[C@@H]4[C@@]5(C)CC[C@H](O)C(C)(C)[C@@H]5CC[C@@]4(C)[C@]3(C)C[C@@H](O)[C@@]2(CO)[C@@H](O)[C@@H]1O`, for which the result was inactive. For `CC1(C)OC[C@@]23[C@@H]4OC(C)(C)O[C@@H]4[C@]4(C)C(=CC[C@@H]5[C@@]6(C)CC[C@H](O)C(C)(C)[C@@H]6CC[C@]54C)[C@@H]2CC(C)(C)[C@@H](O)[C@@H]3O1`, the EC50 amounted to 4 µg/mL (≈ 6.82 µM).

`C/C=C(/C)C(=O)O[C@H]1[C@H](OC(=O)/C(C)=C/C)C(C)(C)C[C@H]2C3=CC[C@@H]4[C@@]5(C)CC[C@H](O)C(C)(C)[C@@H]5CC[C@@]4(C)[C@]3(C)[C@@H](O)[C@@H](O)[C@]21CO` [HIPPOCAESCULIN]: the EC50 turned out to be 3.6 µg/mL (≈ 5.37 µM). Regarding `CC1(C)C[C@H]2C3=CC[C@@H]4[C@@]5(C)CC[C@H](O)C(C)(C)[C@@H]5CC[C@@]4(C)[C@]3(C)[C@@H](O)[C@@H](O)[C@@]2(CO)[C@@H](O)[C@@H]1O`, the result was inactive. Consider `C/C=C(/C)C(=O)O[C@H]1[C@H](O)[C@]2(CO)[C@H](O)C[C@]3(C)C(=CC[C@@H]4[C@@]5(C)CC[C@H](O)C(C)(C)[C@@H]5CC[C@]43C)[C@@H]2CC1(C)C`, for which the EC50 came to 3 µg/mL (≈ 5.24 µM).

The values are drawn from ChEMBL document CHEMBL1149013, “Antitumor agents, 82. Cytotoxic sapogenols from Aesculus hippocastanum” (1986).
